Test results: patent publication US10093713B2, “GIP-GLP-1 dual agonist compounds and methods” (priority 2013, dated 2018)
Read-outs that look alike come from different tables or passages of the source. *1 amine or outer side, *2 acyl side, *3 side chain or, on linkers, in order; H or OH if unused. Where a SMILES comes first, the peptide text is derived from it. Side-chain parts run from the residue outwards. [ ]: non-standard residue; d: D form. The star is where a group is joined. C20 diacid = O=C(O)CCCCCCCCCCCCCCCCCCC(=O)*; γGlu = O=C(O)[C@H](CCC(=O)[*:2])N[*:1]; AEEA = NCCOCCOCC(=O)O; Aib = CC(C)(N)C(=O)O

Legend:
human GIP R = biological target: T1, human GIP R (Homo sapiens, UniProt P48546); assay: Human GIP receptor (GIP R) activity assay, cAMP induction (AlphaScreen) in HEK293 cells; assay type: cell-based; conditions: read-out: hGIP-R cAMP EC50 average value
T1 construct: expressed in transfected cells
T1 sequence (P48546 22-466): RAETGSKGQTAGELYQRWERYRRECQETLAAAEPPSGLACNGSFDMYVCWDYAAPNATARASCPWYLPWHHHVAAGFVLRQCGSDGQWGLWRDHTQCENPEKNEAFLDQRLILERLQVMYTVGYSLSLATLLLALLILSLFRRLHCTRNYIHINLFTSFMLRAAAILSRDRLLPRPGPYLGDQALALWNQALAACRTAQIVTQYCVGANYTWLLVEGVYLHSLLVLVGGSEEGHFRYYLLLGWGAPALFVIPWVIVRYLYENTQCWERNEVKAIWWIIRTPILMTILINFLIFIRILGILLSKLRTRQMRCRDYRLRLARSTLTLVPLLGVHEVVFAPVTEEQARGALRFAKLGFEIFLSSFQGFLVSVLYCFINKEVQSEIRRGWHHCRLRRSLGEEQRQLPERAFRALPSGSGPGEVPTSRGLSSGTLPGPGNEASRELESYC
How it was run: (§1)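 Stable HEK293 clones expressing human GIP R or GLP-1 R, seeded 1 day before; cells washed in Tyrode's buffer (10 mM HEPES, pH 7.4), stimulated, then lysed. cAMP measured by AlphaScreen bead competition (1 h, room temperature, dark). EC50 = concentration giving half-maximal cAMP elevation, from curves of absolute cAMP (nM) vs log concentration.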

human GLP-1 R = biological target: T2, human GLP-1 R (Homo sapiens, UniProt P43220); assay: Human GLP-1 receptor (GLP-1 R) activity assay, cAMP induction (AlphaScreen) in HEK293 cells; assay type: cell-based
T2 construct: expressed in transfected cells
How it was run: as §1

[1] = Pharmacokinetics of selected compounds in mice; assay type: in vivo, C57BL/6J mice; conditions: mouse, plasma; for bioavailability: subcutaneous, AUCinf (s.c.)/AUCinf (i.v.)x100, values marked * capped to 100%
Method: Pharmacokinetics of Selected Compounds in Mice
C57BL/6J mice (males with a body weight of approximately 25 g) were given either a single subcutaneous (s.c.) bolus or a single intravenous (i.v.) bolus of each peptide to be tested.
Following s.c. administration of the selected compounds (50, 100 or 200 nmol/kg), blood samples were drawn at 8 (eight) timepoints up to 72 hours post-dose. Following i.v. administration of the selected compounds (50, 100 or 200 nmol/kg), blood samples were drawn at 8 (eight) timepoints up to 48 hours post-dose. Blood samples were drawn by sublingual bleeding. The dosing vehicle was a phosphate buffer containing mannitol (pH 7.5).
At each sampling time point, samples from two mice were drawn, i.e. 16 mice were included for each compound and each administration route. The mice were euthanized immediately after blood sampling by cervical dislocation. Plasma samples were analyzed after solid phase extraction (SPE) or protein precipitation followed by liquid chromatography mass spectrometry (LC-MS/MS). Mean plasma concentrations were used for calculation of the pharmacokinetic parameters using the non-compartmental approach in Phoenix WinNonlin 6.3. Plasma terminal elimination half-life (T½) was determined as […] where λz is the magnitude of the slope of the log linear regression of the log concentration versus time profile during the terminal phase. Bioavailability was determined as AUCinf (s.c.)/AUCinf (i.v.)×100, where AUCinf is the area under the plasma concentration−time curve extrapolated to infinity (AUCinf=AUClast+Clast/λz, where Clast is the last observed plasma concentration). Tmax is the post-dose time where the maximal plasma concentration was observed.

[2] = Table 2, HEK293 cells expressing human GIP R
[3] = Table 2, HEK293 cells expressing human GLP-1 R, read-out: hGLP1-R cAMP EC50 average value
[4] = Table 3, most comprehensive data, read-out: hGLP-1-R cAMP EC50 average value
[5] = male, C57BL/6J, iv, single i.v. bolus, read-out: T½ terminal elimination half-life, i.v. (converted)
[6] = male, C57BL/6J, sc, single s.c. bolus
[7] = male, C57BL/6J, sc, single s.c. bolus, read-out: T½ terminal elimination half-life, s.c. (converted)
[8] = Table 3, most comprehensive data

T2 sequence (P43220 24-463): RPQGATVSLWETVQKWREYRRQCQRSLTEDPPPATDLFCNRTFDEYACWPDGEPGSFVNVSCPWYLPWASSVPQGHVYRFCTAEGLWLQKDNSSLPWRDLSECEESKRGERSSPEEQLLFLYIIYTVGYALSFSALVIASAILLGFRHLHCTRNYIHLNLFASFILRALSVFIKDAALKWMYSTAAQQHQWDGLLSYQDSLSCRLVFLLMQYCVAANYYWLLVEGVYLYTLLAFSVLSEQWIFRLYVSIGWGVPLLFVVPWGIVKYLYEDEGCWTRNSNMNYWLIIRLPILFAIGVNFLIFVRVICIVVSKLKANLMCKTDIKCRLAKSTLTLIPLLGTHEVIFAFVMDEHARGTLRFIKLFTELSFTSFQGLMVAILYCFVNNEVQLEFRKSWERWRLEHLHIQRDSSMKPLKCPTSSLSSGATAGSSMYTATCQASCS

SMILES | EC50 (human GIP R; [2]) [pM] | EC50 (human GLP-1 R; [3]) [nM] | EC50 (human GLP-1 R; [4]) [nM] | half-life [1, 5] [min] | bioavailability ([1]; male, C57BL/6J) [%] | Tmax [1, 6] [h] | half-life [1, 7] [min] | EC50 (human GIP R; [8]) [pM] | EC50 (human GIP R; Table 2a, secondary assay study) [pM] | half-life ([1]; iv, single i.v. bolus, read-out: T½ terminal elimination half-life, i.v. (converted)) [min] | bioavailability [1] [%] | Tmax ([1]; sc, single s.c. bolus) [h] | half-life ([1]; sc, single s.c. bolus, read-out: T½ terminal elimination half-life, s.c. (converted)) [min]
CC[C@H](C)[C@H](NC(=O)[C@H](CO)NC(=O)[C@H](CC(C)C)NC(=O)[C@H](CC(=O)O)NC(=O)[C@H](CO)NC(=O)[C@@H](NC(=O)[C@H](Cc1ccccc1)NC(=O)[C@@H](NC(=O)CNC(=O)[C@H](CCC(=O)O)NC(=O)C(C)(C)NC(=O)[C@@H](N)Cc1ccc(O)cc1)[C@@H](C)O)[C@@H](C)O)C(=O)N[C@@H](C)C(=O)N[C@@H](CC(C)C)C(=O)N[C@@H](CCC(=O)O)C(=O)N[C@@H](CCCCN)C(=O)N[C@@H](CCCCNC(=O)COCCOCCNC(=O)COCCOCCNC(=O)CC[C@H](NC(=O)CCCCCCCCCCCCCCCCCCC(=O)O)C(=O)O)C(=O)N[C@@H](C)C(=O)N[C@@H](CCC(N)=O)C(=O)N[C@@H](CCCNC(=N)N)C(=O)N[C@@H](C)C(=O)N[C@@H](Cc1ccccc1)C(=O)N[C@H](C(=O)N[C@@H](CCC(=O)O)C(=O)N[C@@H](Cc1c[nH]c2ccccc12)C(=O)N[C@@H](CC(C)C)C(=O)N[C@@H](CC(C)C)C(=O)N[C@@H](C)C(=O)N[C@@H](CCC(N)=O)C(=O)N[C@@H](CCCCN)C(N)=O)C(C)C [Compound 28] (H-Y[Aib]EGTFTSDLSIALEKK([AEEA-AEEA-γGlu-C20 diacid])AQRAFVEWLLAQK-NH2) | 24 | 0.017 | 0.015 | 816 | 93 | 2 | 846 |  |  |  |  |  | 
CC[C@H](C)[C@H](NC(=O)[C@H](CO)NC(=O)[C@H](Cc1ccc(O)cc1)NC(=O)[C@H](CC(=O)O)NC(=O)[C@H](CO)NC(=O)[C@@H](NC(=O)[C@H](Cc1ccccc1)NC(=O)[C@@H](NC(=O)CNC(=O)[C@H](CCC(=O)O)NC(=O)C(C)(C)NC(=O)[C@@H](N)Cc1ccc(O)cc1)[C@@H](C)O)[C@@H](C)O)C(=O)N[C@@H](C)C(=O)N[C@@H](CC(C)C)C(=O)N[C@@H](CC(=O)O)C(=O)N[C@@H](CCCCN)C(=O)N[C@@H](CCCCNC(=O)COCCOCCNC(=O)COCCOCCNC(=O)CC[C@H](NC(=O)CCCCCCCCCCCCCCCCCCC(=O)O)C(=O)O)C(=O)N[C@@H](C)C(=O)N[C@@H](CCC(N)=O)C(=O)N[C@@H](CCCNC(=N)N)C(=O)N[C@@H](C)C(=O)N[C@@H](Cc1ccccc1)C(=O)N[C@H](C(=O)N[C@@H](CC(N)=O)C(=O)N[C@@H](Cc1c[nH]c2ccccc12)C(=O)N[C@@H](CC(C)C)C(=O)N[C@H](C(=O)N[C@@H](C)C(=O)NC(C)(C)C(=O)N[C@@H](CCCCN)C(=O)N1CCC[C@H]1C(=O)N[C@@H](CO)C(=O)N[C@@H](CO)C(=O)NCC(=O)N[C@@H](C)C(=O)N1CCC[C@H]1C(=O)N1CCC[C@H]1C(=O)N1CCC[C@H]1C(=O)N[C@@H](CO)C(N)=O)C(C)C)C(C)C [Compound 15] | 8 | 0.0088 | 0.009 | 1040 | 95 | 8 |  | 8 |  |  |  |  | 
CC[C@H](C)[C@H](NC(=O)[C@H](CO)NC(=O)[C@H](Cc1ccc(O)cc1)NC(=O)[C@H](CC(=O)O)NC(=O)[C@H](CO)NC(=O)[C@@H](NC(=O)[C@H](Cc1ccccc1)NC(=O)[C@@H](NC(=O)CNC(=O)[C@H](CCC(=O)O)NC(=O)C(C)(C)NC(=O)[C@@H](N)Cc1ccc(O)cc1)[C@@H](C)O)[C@@H](C)O)C(=O)N[C@@H](Cc1ccc(O)cc1)C(=O)N[C@@H](CC(C)C)C(=O)N[C@@H](CC(=O)O)C(=O)N[C@@H](CCCCN)C(=O)N[C@@H](CCCCNC(=O)CNC(=O)CNC(=O)[C@H](CO)NC(=O)CNC(=O)[C@H](CO)NC(=O)CNC(=O)CC[C@H](NC(=O)CCCCCCCCCCCCCCCCC(=O)O)C(=O)O)C(=O)N[C@@H](C)C(=O)N[C@@H](CCC(N)=O)C(=O)N[C@@H](CCCNC(=N)N)C(=O)N[C@@H](C)C(=O)N[C@@H](Cc1ccccc1)C(=O)N[C@H](C(=O)N[C@@H](CCC(=O)O)C(=O)N[C@@H](Cc1c[nH]c2ccccc12)C(=O)N[C@@H](CC(C)C)C(=O)N[C@@H](CC(C)C)C(=O)N[C@@H](C)C(=O)N[C@@H](CCC(N)=O)C(=O)NCC(=O)N1CCC[C@H]1C(=O)N[C@@H](CO)C(=O)N[C@@H](CO)C(=O)NCC(=O)N[C@@H](C)C(=O)N1CCC[C@H]1C(=O)N1CCC[C@H]1C(=O)N1CCC[C@H]1C(=O)N[C@@H](CO)C(N)=O)C(C)C [Compound 4] | 8.7 | 0.01 |  |  |  |  |  | 9 | 9 | 522 | 100 | 6 | 648
CC[C@H](C)[C@H](NC(=O)[C@H](CO)NC(=O)[C@H](Cc1ccc(O)cc1)NC(=O)[C@H](CC(=O)O)NC(=O)[C@H](CO)NC(=O)[C@@H](NC(=O)[C@H](Cc1ccccc1)NC(=O)[C@@H](NC(=O)CNC(=O)[C@H](CCC(=O)O)NC(=O)[C@@H](C)NC(=O)[C@@H](N)Cc1ccc(O)cc1)[C@@H](C)O)[C@@H](C)O)C(=O)N[C@@H](C)C(=O)N[C@@H](CC(C)C)C(=O)N[C@@H](CCC(=O)O)C(=O)N[C@@H](CCCCN)C(=O)N[C@@H](CCCCNC(=O)COCCOCCNC(=O)COCCOCCNC(=O)CC[C@H](NC(=O)CCCCCCCCCCCCCCCCCCC(=O)O)C(=O)O)C(=O)N[C@@H](C)C(=O)N[C@@H](CCC(N)=O)C(=O)N[C@@H](CCCNC(=N)N)C(=O)N[C@@H](C)C(=O)N[C@@H](Cc1ccccc1)C(=O)N[C@H](C(=O)N[C@@H](CCC(=O)O)C(=O)N[C@@H](Cc1c[nH]c2ccccc12)C(=O)N[C@@H](CC(C)C)C(=O)N[C@@H](CC(C)C)C(=O)N[C@@H](C)C(=O)N[C@@H](CCC(N)=O)C(=O)NCC(=O)N1CCC[C@H]1C(=O)N[C@@H](CO)C(=O)N[C@@H](CO)C(=O)NCC(=O)N[C@@H](C)C(=O)N1CCC[C@H]1C(=O)N1CCC[C@H]1C(=O)N1CCC[C@H]1C(=O)N[C@@H](CO)C(N)=O)C(C)C [Compound 32] (H-Y[dA]EGTFTSDYSIALEKK([AEEA-AEEA-γGlu-C20 diacid])AQRAFVEWLLAQGPSSGAPPPS-NH2) | 16 | 0.04 | 0.056 | 1040 | 100 | 8 | 708 | 18 |  |  |  |  | 
